{
  "source": "ChEMBL document CHEMBL4602617",
  "about": "“Discovery and optimization of heteroaryl piperazines as potent and selective PI3Kδ inhibitors” (Bioorg Med Chem Lett, 2020)",
  "key": {"[1]": {"molecular_target": "Cytoplasmic tyrosine-protein kinase BMX (Homo sapiens, UniProt P51813)", "test": "Inhibition of recombinant full length human His-tagged BMX cytoplasmic domain expressed in baculovirus expression system using tyrosine-1 peptide as substrate incubated for 60 mins in presence of ATP by Z'-LYTE assay"}, "[2]": {"molecular_target": "Melanocortin receptor 4 (Homo sapiens) (UniProt P32245)", "test": "Displacement of [125I]NDP-alpha-MSH from full length human recombinant MC4 receptor expressed in HEK293 cells at 10 uM measured after 120 mins by radiometric scintillation analysis relative to control", "assay_type": "cell-based"}, "[3]": {"molecular_target": "Dual specificity tyrosine-phosphorylation-regulated kinase 1A (Homo sapiens, UniProt Q13627)", "test": "Inhibition of recombinant full length human GST-tagged DYRK1A expressed in baculovirus expression system using serine/threonine-18 peptide as substrate incubated for 60 mins in presence of ATP by Z'-LYTE assay"}, "[4]": {"molecular_target": "Serine/threonine-protein kinase PLK1 (Homo sapiens, UniProt P53350)", "test": "Inhibition of recombinant full length human His-tagged PLK1 expressed in baculovirus expression system using serine/threonine-16 peptide as substrate incubated for 60 mins in presence of ATP by Z'-LYTE assay"}, "[5]": {"molecular_target": "cGMP-dependent protein kinase 1 (Homo sapiens, UniProt Q13976)", "test": "Inhibition of recombinant full length human GST-tagged PRKG1 expressed in baculovirus expression system using serine/threonine-01 peptide as substrate incubated for 60 mins in presence of ATP by Z'-LYTE assay"}, "[6]": {"molecular_target": "Protein kinase C iota type (Homo sapiens, UniProt P41743)", "test": "Inhibition of recombinant full length human His-tagged PRKCI expressed in baculovirus expression system using serine/threonine-7 peptide as substrate incubated for 60 mins in presence of ATP by Z'-LYTE assay"}, "Ephrin type-B receptor 2": {"molecular_target": "Ephrin type-B receptor 2 (Homo sapiens, UniProt P29323)", "test": "Inhibition of recombinant human GST-tagged EPHB2 catalytic domain (616 to 884 residues) expressed in baculovirus expression system using tyrosine-2 peptide as substrate incubated for 60 mins in presence of ATP by Z'-LYTE assay"}, "[7]": {"molecular_target": "Serine/threonine-protein kinase PAK 5 (Homo sapiens, UniProt Q9P286)", "sequence (Q9P286 whole entry, the tested form may be a part)": "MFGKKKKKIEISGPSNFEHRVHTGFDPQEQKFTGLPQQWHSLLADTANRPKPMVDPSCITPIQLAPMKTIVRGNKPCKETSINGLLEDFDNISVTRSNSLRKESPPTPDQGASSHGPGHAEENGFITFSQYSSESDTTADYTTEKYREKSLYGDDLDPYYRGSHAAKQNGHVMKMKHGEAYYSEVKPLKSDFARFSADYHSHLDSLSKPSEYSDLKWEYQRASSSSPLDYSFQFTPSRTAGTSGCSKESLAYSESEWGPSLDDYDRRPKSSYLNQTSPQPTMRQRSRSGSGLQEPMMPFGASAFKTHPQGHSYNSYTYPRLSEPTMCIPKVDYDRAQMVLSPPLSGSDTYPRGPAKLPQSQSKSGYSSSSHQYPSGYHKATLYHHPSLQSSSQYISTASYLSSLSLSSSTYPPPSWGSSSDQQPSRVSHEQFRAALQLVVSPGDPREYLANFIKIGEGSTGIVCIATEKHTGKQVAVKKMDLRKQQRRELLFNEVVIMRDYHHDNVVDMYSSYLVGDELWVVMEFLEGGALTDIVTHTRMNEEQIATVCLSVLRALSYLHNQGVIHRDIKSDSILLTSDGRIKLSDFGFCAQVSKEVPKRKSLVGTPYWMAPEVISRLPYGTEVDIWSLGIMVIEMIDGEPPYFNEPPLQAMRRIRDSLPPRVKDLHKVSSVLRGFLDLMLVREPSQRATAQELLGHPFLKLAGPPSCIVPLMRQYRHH", "test": "Inhibition of recombinant human His-tagged PAK7 catalytic domain (425 to 719 residues) expressed in baculovirus expression system using serine/threonine-20 peptide as substrate incubated for 60 mins in presence of ATP by Z'-LYTE assay"}, "[8]": {"molecular_target": "Epidermal growth factor receptor (Homo sapiens, UniProt P00533)", "sequence (P00533 whole entry)": "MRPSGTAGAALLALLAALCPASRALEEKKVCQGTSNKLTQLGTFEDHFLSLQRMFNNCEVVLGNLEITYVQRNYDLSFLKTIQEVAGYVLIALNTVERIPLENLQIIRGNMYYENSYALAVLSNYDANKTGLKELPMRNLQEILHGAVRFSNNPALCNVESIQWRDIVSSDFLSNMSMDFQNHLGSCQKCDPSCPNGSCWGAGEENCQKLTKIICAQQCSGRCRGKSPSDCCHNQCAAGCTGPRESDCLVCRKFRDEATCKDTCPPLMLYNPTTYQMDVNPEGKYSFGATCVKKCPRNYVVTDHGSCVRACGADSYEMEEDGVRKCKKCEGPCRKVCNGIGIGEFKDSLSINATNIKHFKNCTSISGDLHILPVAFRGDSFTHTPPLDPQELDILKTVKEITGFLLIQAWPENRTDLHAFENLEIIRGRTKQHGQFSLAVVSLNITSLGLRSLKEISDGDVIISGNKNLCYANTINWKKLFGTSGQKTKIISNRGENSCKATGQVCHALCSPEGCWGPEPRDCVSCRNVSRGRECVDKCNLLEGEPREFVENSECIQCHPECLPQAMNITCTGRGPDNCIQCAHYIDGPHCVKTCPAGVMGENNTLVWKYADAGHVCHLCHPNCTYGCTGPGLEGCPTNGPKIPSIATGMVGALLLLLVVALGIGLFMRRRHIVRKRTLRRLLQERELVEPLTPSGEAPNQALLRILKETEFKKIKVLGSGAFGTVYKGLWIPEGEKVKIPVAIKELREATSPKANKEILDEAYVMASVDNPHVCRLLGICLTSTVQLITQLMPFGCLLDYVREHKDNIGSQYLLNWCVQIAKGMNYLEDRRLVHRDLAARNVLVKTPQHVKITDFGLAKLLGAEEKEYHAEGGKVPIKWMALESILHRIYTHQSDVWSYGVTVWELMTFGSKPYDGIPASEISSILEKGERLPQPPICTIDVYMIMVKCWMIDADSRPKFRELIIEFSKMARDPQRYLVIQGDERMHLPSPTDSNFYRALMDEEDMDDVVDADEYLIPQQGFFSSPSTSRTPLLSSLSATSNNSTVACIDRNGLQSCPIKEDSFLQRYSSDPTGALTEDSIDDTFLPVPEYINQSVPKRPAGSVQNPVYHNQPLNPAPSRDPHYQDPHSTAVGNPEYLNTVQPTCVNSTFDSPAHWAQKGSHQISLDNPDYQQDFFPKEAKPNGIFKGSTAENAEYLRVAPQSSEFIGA", "test": "Inhibition of recombinant human GST-tagged EGFR expressed in baculovirus expression system using tyr-04 peptide as substrate incubated for 60 mins in presence of ATP by Z'-LYTE assay"}, "[9]": {"molecular_target": "Tyrosine-protein kinase Blk (Homo sapiens, UniProt P51451)", "test": "Inhibition of recombinant full length human His-tagged BLK cytoplasmic domain expressed in baculovirus expression system using tyrosine-1 peptide as substrate incubated for 60 mins in presence of ATP by Z'-LYTE assay"}, "[10]": {"molecular_target": "C-X-C chemokine receptor type 4 (Homo sapiens) (UniProt P61073)", "sequence (P61073 whole entry)": "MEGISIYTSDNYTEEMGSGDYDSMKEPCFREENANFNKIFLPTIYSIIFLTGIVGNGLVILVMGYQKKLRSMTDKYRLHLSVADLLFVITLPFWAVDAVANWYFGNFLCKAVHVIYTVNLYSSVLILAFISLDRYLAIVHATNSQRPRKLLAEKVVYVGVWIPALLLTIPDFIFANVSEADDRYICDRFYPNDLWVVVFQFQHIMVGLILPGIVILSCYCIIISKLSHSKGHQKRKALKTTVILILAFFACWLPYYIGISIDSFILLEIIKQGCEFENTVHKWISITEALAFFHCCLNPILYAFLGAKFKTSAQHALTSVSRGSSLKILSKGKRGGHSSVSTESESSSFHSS", "test": "Displacement of [125I]SDF-1alpha from recombinant full length human recombinant CXCR4 expressed in Chem-1 cells at 10 uM measured after 90 mins by radiometric scintillation analysis relative to control", "assay_type": "cell-based"}, "[11]": {"molecular_target": "Serine/threonine-protein kinase MARK2 (Homo sapiens, UniProt Q7KZI7)", "test": "Inhibition of recombinant full length human GST-tagged MARK2 expressed in baculovirus expression system using serine/threonine-21 peptide as substrate incubated for 60 mins in presence of ATP by Z'-LYTE assay"}, "[12]": {"molecular_target": "Cysteinyl leukotriene receptor 2 (Homo sapiens) (UniProt Q9NS75)", "test": "Inhibition of human CYSLt2 receptor at 10 uM relative to control"}, "[13]": {"molecular_target": "Melanocortin receptor 3 (Homo sapiens) (UniProt P41968)", "test": "Displacement of [125I]NDP-alpha-MSH from full length human recombinant MC3 receptor expressed in HEK293 cells at 10 uM measured after 60 mins by radiometric scintillation analysis relative to control", "assay_type": "cell-based"}, "[14]": {"molecular_target": "Proto-oncogene tyrosine-protein kinase receptor Ret (Homo sapiens, UniProt P07949, V804L)", "sequence (P07949 29-1114 V804L limits assumed)": "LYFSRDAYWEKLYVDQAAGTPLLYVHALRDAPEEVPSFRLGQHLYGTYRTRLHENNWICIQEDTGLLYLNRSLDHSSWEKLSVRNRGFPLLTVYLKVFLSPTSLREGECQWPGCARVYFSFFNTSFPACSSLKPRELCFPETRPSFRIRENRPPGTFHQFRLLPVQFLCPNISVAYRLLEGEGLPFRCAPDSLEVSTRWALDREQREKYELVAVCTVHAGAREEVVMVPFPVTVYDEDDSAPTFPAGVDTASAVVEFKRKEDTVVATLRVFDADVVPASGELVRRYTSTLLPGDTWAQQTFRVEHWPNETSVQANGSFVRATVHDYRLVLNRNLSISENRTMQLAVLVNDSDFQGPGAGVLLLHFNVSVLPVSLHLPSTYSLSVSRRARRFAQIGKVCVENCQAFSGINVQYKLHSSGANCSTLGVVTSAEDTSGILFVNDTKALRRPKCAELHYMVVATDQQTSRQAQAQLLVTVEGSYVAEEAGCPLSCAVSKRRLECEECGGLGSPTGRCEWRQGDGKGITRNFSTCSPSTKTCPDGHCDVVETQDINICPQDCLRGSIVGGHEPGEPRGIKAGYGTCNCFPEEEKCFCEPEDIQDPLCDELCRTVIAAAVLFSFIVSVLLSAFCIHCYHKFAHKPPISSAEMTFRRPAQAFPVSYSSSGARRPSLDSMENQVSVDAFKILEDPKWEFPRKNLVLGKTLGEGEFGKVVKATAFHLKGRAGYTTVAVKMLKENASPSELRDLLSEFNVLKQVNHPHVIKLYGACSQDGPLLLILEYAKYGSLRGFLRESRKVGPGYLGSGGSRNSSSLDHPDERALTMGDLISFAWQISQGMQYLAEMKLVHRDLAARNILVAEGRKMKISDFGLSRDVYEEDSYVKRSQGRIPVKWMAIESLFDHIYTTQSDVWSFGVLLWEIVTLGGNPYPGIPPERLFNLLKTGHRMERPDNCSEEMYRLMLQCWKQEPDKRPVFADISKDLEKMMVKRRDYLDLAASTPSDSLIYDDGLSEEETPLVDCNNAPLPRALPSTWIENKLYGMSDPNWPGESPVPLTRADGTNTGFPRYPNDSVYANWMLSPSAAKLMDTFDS", "test": "Inhibition of recombinant human GST-tagged RET V804L mutant cytoplasmic domain expressed in baculovirus expression system using tyr02 peptide as substrate incubated for 60 mins in presence of ATP by Z'-LYTE assay"}, "[15]": {"molecular_target": "GABA-A receptor; anion channel (Rattus norvegicus) (UniProt O09028+P15431+P18506+P18508+P19969+P20236+P23574+P23576+P28471+P28473+P30191+P62813+P63079+P63138+Q91ZM7+Q9ES14)", "test": "Displacement of [3H]-Ro15-1788 from GABA(A) receptor in Wistar rat hippocampus at 10 uM incubated for 120 mins by radiometric scintillation analysis relative to control", "assay_type": "tissue-based"}, "[16]": {"molecular_target": "Tyrosine-protein kinase FRK (Homo sapiens, UniProt P42685)", "sequence (P42685 whole entry)": "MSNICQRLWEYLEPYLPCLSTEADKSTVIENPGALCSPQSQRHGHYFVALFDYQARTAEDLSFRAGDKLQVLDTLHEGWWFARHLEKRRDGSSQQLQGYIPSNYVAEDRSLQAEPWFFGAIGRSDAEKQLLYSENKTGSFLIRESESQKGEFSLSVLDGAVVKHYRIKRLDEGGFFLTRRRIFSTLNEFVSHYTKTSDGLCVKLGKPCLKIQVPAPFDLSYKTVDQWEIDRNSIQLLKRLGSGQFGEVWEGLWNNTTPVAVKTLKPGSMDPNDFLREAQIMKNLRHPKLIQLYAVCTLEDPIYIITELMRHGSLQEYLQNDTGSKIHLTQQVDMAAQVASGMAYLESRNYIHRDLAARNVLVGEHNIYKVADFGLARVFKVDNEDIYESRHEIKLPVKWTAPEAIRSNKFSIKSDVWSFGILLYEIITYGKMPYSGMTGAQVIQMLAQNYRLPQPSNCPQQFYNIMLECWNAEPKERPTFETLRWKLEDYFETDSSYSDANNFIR", "test": "Inhibition of recombinant full length GST-tagged human FRK expressed in baculovirus expression system using tyrosine 1 as substrate after 1 hr in presence of ATP by ZYLTE assay"}, "[17]": {"molecular_target": "Rho-associated protein kinase 2 (Homo sapiens, UniProt O75116)", "test": "Inhibition of recombinant human GST-tagged ROCK2 catalytic domain expressed in baculovirus expression system using serine/threonine-13 peptide as substrate incubated for 60 mins in presence of ATP by Z'-LYTE assay"}, "[18]": {"molecular_target": "Prostacyclin receptor (Homo sapiens) (UniProt P43119)", "test": "Inhibition of human prostanoid IP receptor at 10 uM relative to control"}, "[19]": {"molecular_target": "Serine/threonine-protein kinase haspin (Homo sapiens, UniProt Q8TF76)", "sequence (Q8TF76 whole entry, the tested form may be a part)": "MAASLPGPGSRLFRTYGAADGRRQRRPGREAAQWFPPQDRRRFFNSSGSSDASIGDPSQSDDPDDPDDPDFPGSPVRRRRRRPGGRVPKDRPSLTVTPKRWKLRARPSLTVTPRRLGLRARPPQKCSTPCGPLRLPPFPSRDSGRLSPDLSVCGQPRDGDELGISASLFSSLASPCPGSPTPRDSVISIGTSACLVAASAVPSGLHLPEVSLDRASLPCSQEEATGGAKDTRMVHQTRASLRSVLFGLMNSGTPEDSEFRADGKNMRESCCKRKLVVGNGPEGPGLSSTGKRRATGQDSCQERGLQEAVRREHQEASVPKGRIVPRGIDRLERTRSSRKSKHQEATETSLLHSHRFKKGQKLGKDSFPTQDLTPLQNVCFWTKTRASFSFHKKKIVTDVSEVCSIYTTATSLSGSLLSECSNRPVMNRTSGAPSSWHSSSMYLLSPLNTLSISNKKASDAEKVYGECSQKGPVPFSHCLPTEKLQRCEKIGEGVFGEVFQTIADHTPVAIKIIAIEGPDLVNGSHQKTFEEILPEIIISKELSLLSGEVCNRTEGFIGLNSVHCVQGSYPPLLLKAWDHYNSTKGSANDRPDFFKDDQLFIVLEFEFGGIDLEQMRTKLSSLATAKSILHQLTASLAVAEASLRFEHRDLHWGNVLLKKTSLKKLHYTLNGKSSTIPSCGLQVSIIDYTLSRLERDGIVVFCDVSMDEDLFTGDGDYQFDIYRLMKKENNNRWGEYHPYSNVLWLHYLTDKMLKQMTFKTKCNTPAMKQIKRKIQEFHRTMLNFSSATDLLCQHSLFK", "test": "Inhibition of recombinant N-terminal GST tagged human GSG2 catalytic domain (471 to 798 residues) expressed in baculovirus expression system using Histone H3 (1-20) peptide as substrate after 1 hr in presence of ATP by ADAPTA assay"}, "[20]": {"molecular_target": "Hepatocyte growth factor receptor (Homo sapiens, UniProt P08581)", "test": "Inhibition of human recombinant His-tagged cMET cytoplasmic domain expressed in baculovirus expression system using tyrosine 6 peptide as substrate after 60 mins in presence of ATP FRET based Z'-LYTE assay"}, "Focal adhesion kinase 1": {"molecular_target": "Focal adhesion kinase 1 (Homo sapiens, UniProt Q05397)", "test": "Inhibition of recombinant full length human GST-tagged PTK2 expressed in baculovirus expression system using tyr07 peptide as substrate incubated for 60 mins in presence of ATP by Z'-LYTE assay"}, "[21]": {"molecular_target": "Melanocortin receptor 5 (Homo sapiens) (UniProt P33032)", "sequence (P33032 whole entry)": "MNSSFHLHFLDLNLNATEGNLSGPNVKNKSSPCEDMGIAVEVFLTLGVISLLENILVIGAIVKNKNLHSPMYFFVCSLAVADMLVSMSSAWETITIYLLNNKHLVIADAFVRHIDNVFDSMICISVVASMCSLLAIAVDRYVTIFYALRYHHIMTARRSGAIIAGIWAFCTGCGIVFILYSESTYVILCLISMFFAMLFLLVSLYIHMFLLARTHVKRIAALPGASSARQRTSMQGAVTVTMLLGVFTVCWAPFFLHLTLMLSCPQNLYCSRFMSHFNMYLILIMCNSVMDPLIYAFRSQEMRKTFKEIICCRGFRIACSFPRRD", "test": "Displacement of [125I]NDP-alpha-MSH from full length human recombinant MC5 receptor expressed in HEK293 cells at 10 uM measured after 120 mins by radiometric scintillation analysis relative to control", "assay_type": "cell-based"}, "[22]": {"molecular_target": "cAMP-dependent protein kinase catalytic subunit alpha (Homo sapiens, UniProt P17612)", "test": "Inhibition of recombinant human His-tagged PRKACA catalytic domain expressed in Escherichia coli using fluorophore-labeled serine/threonine-1 peptide as substrate incubated for 60 mins in presence of ATP by Z'-LYTE assay"}},
  "data": [
    {"smiles": "C[C@@H]1C[C@H]1C(=O)N1CCN(c2cnc(C#N)c(-c3cnn(C)c3)n2)C[C@H]1C", "values": [
      {"measurement": "IC50", "setting": "[1]", "value": "> 100", "unit": "µM"},
      {"measurement": "inhibition", "setting": "[2]", "value": 5, "unit": "%"},
      {"measurement": "IC50", "setting": "[3]", "value": "> 100", "unit": "µM"},
      {"measurement": "IC50", "setting": "[4]", "value": "> 100", "unit": "µM"},
      {"measurement": "IC50", "setting": "[5]", "value": "> 100", "unit": "µM"},
      {"measurement": "IC50", "setting": "[6]", "value": "> 100", "unit": "µM"},
      {"measurement": "IC50", "setting": "Ephrin type-B receptor 2", "value": "> 100", "unit": "µM"},
      {"measurement": "IC50", "setting": "[7]", "value": "> 100", "unit": "µM"},
      {"measurement": "IC50", "setting": "[8]", "value": "> 100", "unit": "µM"},
      {"measurement": "IC50", "setting": "[9]", "value": "> 100", "unit": "µM"},
      {"measurement": "inhibition", "setting": "[10]", "value": 5, "unit": "%"},
      {"measurement": "IC50", "setting": "[11]", "value": "> 100", "unit": "µM"},
      {"measurement": "inhibition", "setting": "[12]", "value": 15, "unit": "%"},
      {"measurement": "inhibition", "setting": "[13]", "value": 2, "unit": "%"},
      {"measurement": "IC50", "setting": "[14]", "value": "> 100", "unit": "µM"},
      {"measurement": "inhibition", "setting": "[15]", "value": -3, "unit": "%"},
      {"measurement": "IC50", "setting": "[16]", "value": "> 100", "unit": "µM"},
      {"measurement": "IC50", "setting": "[17]", "value": "> 100", "unit": "µM"},
      {"measurement": "inhibition", "setting": "[18]", "value": -1, "unit": "%"},
      {"measurement": "IC50", "setting": "[19]", "value": "> 100", "unit": "µM"},
      {"measurement": "IC50", "setting": "[20]", "value": "> 100", "unit": "µM"},
      {"measurement": "IC50", "setting": "Focal adhesion kinase 1", "value": "> 100", "unit": "µM"},
      {"measurement": "inhibition", "setting": "[21]", "value": 22, "unit": "%"},
      {"measurement": "IC50", "setting": "[22]", "value": "> 100", "unit": "µM"}
    ]}
  ]
}
